In US9447136B2, “Semisynthetic derivatives of Nystatin A1” (BLIRT S.A., priority 2012, dated 2016):
≈ marks a conversion by molar mass, not a printed value.

Assays:
CCRF-CEM = test: Cytotoxic activity against mammalian cells in tissue culture (MTT); type: cell-based, human
Experimental: (§1) For examinations were used selected cell lines: CCRF-CEM—human acute lymphoblastic leukemia; HepG2—human malignant hepatoma; LLC-PK1—epithelial cell of pig kidney; All lines were from ATCC collection.
(§2) The study are conducted using described below methods of culturing and determination of cytotoxic activity.
(§3) CCRF-CEM cells were cultured in medium RPMI 1640+10% fetal bovine serum (FBS), LLC-PK1 cells in medium Medium 199+3% FBS, HepG2 cells in medium MEM+10% FBS. All media contained 100 μg/ml of penicillin G and streptomycin. 24-wells microplates containing appropriate medium were inoculated with the cells in amount of 1.2×10^4 cells/well and allowed to stand overnight. Next, tested compounds as solution in dimethylsulfoxide (DMSO) were added in volume of 10 μl (serial 2× dilutions). To control well 10 μl of DMSO was added. Microplates with cell suspensions were incubated for 120 h at temperature 37° C. at atmosphere of 95%/5% CO2. After incubation, to all wells 200 μl of solution of 3-(4,5-dimethylthiazole-2-yl)-2,5-diphenylotetrazole bromide (MTT) in PBS (4 mg/ml) was added and plates were further incubated for 4 h at 37° C. Next, to dissolve crystals of formazane 1 ml of DMSO was added and absorption of solutions was measured at the wavelength λ=540 nm (A540), using a microplates reader (Victor^3, Perkin-Wallac). […] From these graphs IC50 values were read, that is concentration of tested compound in the presence at which A540 value is half of A540 value measured in the control sample.

HepG2 = test: as above; type: cell-based, human
Experimental: as §1, §2, §3

Candida albicans STY31 = test: Antifungal activity towards resistant (MDR) strains; type: cell-based; conditions: 5674 mutant derivative, deletion of CDR1 and CDR2
Experimental: (§4) The determination of antifungal activity was performed by the serial dilutions method in buffered RPMI 1640 medium, in a 96-wells microplates, according to the standard procedure (National Committee for Clinical Laboratory Standards. Reference method for broth dilution antifungal susceptibility testing of yeast, approved standard, 2nd ed. M27-A2 vol. 22 Wayne, Pa., 2002). The optical density of cells suspension was measured using a microplates reader (Victor^3, Perkin-Elmer) at the wavelength λ=660 nm (A660). On the basis of received results the diagrams on interrelation between the A660 value and the concentration of tested compound were made. From these graphs MIC values were read, that are the concentrations of tested compounds, in the presence at which A660 value is at most 20% of A660 value measured in control sample.

Candida albicans Gu4 = test: as above; type: cell-based; conditions: fluconazole sensitive, parent strain for Gu5
Experimental: as §4

Candida albicans STY19 = test: as above; type: cell-based; conditions: 5674 mutant derivative, deletion of CDR1
Experimental: as §4

Candida albicans F5 = test: as above; type: cell-based; conditions: fluconazole-resistant due to the overexpression of CaMDR1 and ERG11
Experimental: as §4

Candida albicans 5674 = test: as above; type: cell-based; conditions: C. albicans 5674 overexpressing CDR1 and CDR2
Experimental: as §4

Candida albicans B4 = test: as above; type: cell-based; conditions: fluconazole-resistant due to the overexpression of CaMDR1
Experimental: as §4

Candida albicans STY7 = test: as above; type: cell-based; conditions: 5674 mutant derivative, deletion of CDR2
Experimental: as §4

Candida albicans Gu5 = test: as above; type: cell-based; conditions: fluconazole-resistant due to the overexpression of CDR1 and CDR2
Experimental: as §4

Candida albicans F2 = test: as above; type: cell-based; conditions: fluconazole sensitive, parent strain for F5
Experimental: as §4

Candida albicans B3 = test: as above; type: cell-based; conditions: fluconazole sensitive, parent strain for B4
Experimental: as §4

Human erythrocytes = test: Hemotoxicity (hemolytic activity)
Procedure, shortened: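 Human erythrocytes in saline (2×10^7/ml) were incubated with serially diluted compound at 37 °C for 30 min, then centrifuged. Released hemoglobin was read as A540 against 0.1% Triton X-100 as full hemolysis. EH50 is the interpolated concentration giving 50% of the control A540.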

[1] = tested on: Candida stellatoidea CBS 1905; test: Antifungal activity in vitro, serial dilution in RPMI 1640; type: cell-based; conditions: Table 2B
Procedure, shortened: (§5)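 In buffered RPMI 1640 at pH 7.0, fungi were exposed to serially diluted compound (M27-A2 standard) and turbidity was recorded at 531 nm. Values relative to control: IC50 at 50%, MIC as lowest concentration at ≤20%.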

Candida arborea KKP 319 = test: as above; type: cell-based; conditions: Table 2B
Procedure, shortened: as §5

[2] = tested on: Candida quilliermondii DSM 11947; test: as above; type: cell-based; conditions: Table 2B
Procedure, shortened: as §5

[3] = tested on: Trichoderma viride LOCK E159; test: as above; type: cell-based; conditions: Table 2B
Procedure, shortened: as §5

[4] = tested on: Candida parapsilosis DSM 5784; test: as above; type: cell-based; conditions: Table 2B
Procedure, shortened: as §5

[5] = tested on: Candida albicans ATCC 10231; test: as above; type: cell-based
Procedure, shortened: as §5

Candida krusei DSM 6128 = test: as above; type: cell-based; conditions: Table 2A; RPMI 1640, pH 7.0
Procedure, shortened: as §5

[6] = tested on: Candida lipolytica KKP 322; test: as above; type: cell-based; conditions: Table 2B
Procedure, shortened: as §5

[7] = tested on: Candida tropicalis KKP 334; test: as above; type: cell-based; conditions: Table 2A; RPMI 1640, pH 7.0
Procedure, shortened: as §5

[8] = tested on: Aspergillus niger LOCK E201; test: as above; type: cell-based; conditions: Table 2B
Procedure, shortened: as §5

[9] = tested on: Saccharomyces cerevisiae ATCC 9763; test: as above; type: cell-based
Procedure, shortened: as §5

[10] = tested on: Candida glabrata DSM 11226; test: as above; type: cell-based; conditions: Table 2A; RPMI 1640, pH 7.0
Procedure, shortened: as §5

[11] = tested on: Candida pseudotropicalis KKP 324; test: as above; type: cell-based; conditions: Table 2B
Procedure, shortened: as §5

[12] = tested on: Candida dubliniensis CBS 7987; test: as above; type: cell-based; conditions: Table 2B
Procedure, shortened: as §5

LLC-PK1 = test: Cytotoxic activity against mammalian cells in tissue culture (MTT); type: cell-based, pig
Experimental: as §1, §2, §3

[13] = Table 2A, RPMI 1640, pH 7.0, A531 at most 20% of control

Q: Which “Cytotoxicity IC50 CCRF-CEM” value (CCRF-CEM) does the source give for `CC1OC(O[C@H]2/C=C/C=C/C=C/C=C/CC/C=C/C=C/[C@H](C)[C@@H](O)[C@@H](C)[C@H](C)OC(=O)C[C@H](O)C[C@H](O)C[C@H](O)CC[C@@H](O)[C@H](O)CC3(O)C[C@H](O)[C@@H](C(=O)O)[C@H](C2)O3)C(O)C(NC(=O)[C@H](N)CC(=O)OC(C)(C)C)C1O` (stereo partly drawn) [Compound N41, N-D-(O-tert-butyl)asparagylnystatin A1] here?
A: >100 µg/mL

Q: And the “Cytotoxicity IC50 HepG2” value (HepG2)?
A: >100 µg/mL

Q: And the “MIC Candida albicans STY31” value (Candida albicans STY31)?
A: 16 µg/mL (≈ 14.6 µM)

Q: And the “MIC Candida albicans Gu4” value (Candida albicans Gu4)?
A: 8 µg/mL (≈ 7.29 µM)

Q: And the “MIC Candida albicans STY19” value (Candida albicans STY19)?
A: 0.5 µg/mL (≈ 0.456 µM)

Q: And the “MIC Candida albicans F5” value (Candida albicans F5)?
A: 16 µg/mL (≈ 14.6 µM)

Q: What about the “MIC Candida albicans 5674” value (Candida albicans 5674) of the same molecule?
A: 16 µg/mL (≈ 14.6 µM)

Q: What about the “MIC Candida albicans B4” value (Candida albicans B4) of the same molecule?
A: 16 µg/mL (≈ 14.6 µM)

Q: What about the “MIC Candida albicans STY7” value (Candida albicans STY7) of the same molecule?
A: 16 µg/mL (≈ 14.6 µM)

Q: And the “MIC Candida albicans Gu5” value (Candida albicans Gu5)?
A: 8 µg/mL (≈ 7.29 µM)

Q: And the “MIC Candida albicans F2” value (Candida albicans F2)?
A: 16 µg/mL (≈ 14.6 µM)

Q: And the “MIC Candida albicans B3” value (Candida albicans B3)?
A: 8 µg/mL (≈ 7.29 µM)

Q: What about the “% of hemolysis at the concentration 60 μg ml^−1” value (Human erythrocytes) of the same molecule?
A: 0.15%

Q: What about the “MIC Candida stellatoidea CBS 1905” value [1] of the same molecule?
A: 4 µg/mL (≈ 3.65 µM)

Q: And the “MIC Candida arborea KKP 319” value (Candida arborea KKP 319)?
A: 8 µg/mL (≈ 7.29 µM)

Q: What about the “MIC Candida quilliermondii DSM 11947” value [2] of the same molecule?
A: 8 µg/mL (≈ 7.29 µM)

Q: And the “MIC Trichoderma viride LOCK E159” value [3]?
A: 32 µg/mL (≈ 29.2 µM)

Q: What about the “MIC Candida parapsilosis DSM 5784” value [4] of the same molecule?
A: 8 µg/mL (≈ 7.29 µM)

Q: What about the “Antifungal activity Candida albicans ATCC 10231 IC50” value ([5]; Table 2A, RPMI 1640, pH 7.0, A531 50% of control) of the same molecule?
A: 4.69 µg/mL

Q: What about the “Antifungal activity Candida albicans ATCC 10231 MIC” value [5, 13] of the same molecule?
A: 8 µg/mL

Q: And the “MIC Candida albicans ATCC 10231” value ([5]; Table 2B)?
A: 8 µg/mL (≈ 7.29 µM)

Q: And the “Antifungal activity Candida krusei DSM 6128 MIC” value (Candida krusei DSM 6128)?
A: 8 µg/mL

Q: What about the “MIC Candida lipolytica KKP 322” value [6] of the same molecule?
A: 8 µg/mL (≈ 7.29 µM)

Q: And the “Antifungal activity Candida tropicalis KKP 334 MIC” value [7]?
A: 4 µg/mL

Q: What about the “MIC Aspergillus niger LOCK E201” value [8] of the same molecule?
A: 8 µg/mL (≈ 7.29 µM)

Q: What about the “Antifungal activity Saccharomyces cerevisiae ATCC 9763 MIC” value [9, 13] of the same molecule?
A: 4 µg/mL

Q: And the “MIC Saccharomyces cerevisiae ATCC 9763” value ([9]; Table 2B)?
A: 4 µg/mL (≈ 3.65 µM)

Q: And the “Antifungal activity Candida glabrata DSM 11226 MIC” value [10]?
A: 8 µg/mL

Q: What about the “MIC Candida pseudotropicalis KKP 324” value [11] of the same molecule?
A: 4 µg/mL (≈ 3.65 µM)

Q: What about the “MIC Candida dubliniensis CBS 7987” value [12] of the same molecule?
A: 2 µg/mL (≈ 1.82 µM)

Q: What about the “Cytotoxicity IC50 LLC-PK1” value (LLC-PK1) of the same molecule?
A: >100 µg/mL
